In ChEMBL document CHEMBL1156390, “Phyllanemblinins A-F, new ellagitannins from Phyllanthus emblica” (J Nat Prod, 2001):
Calls of active or inactive are those of the source. The calls are words filed in the database; no cut-off is given here.

System: Radical scavenging activity
Test: Antioxidant activity assessed as DPPH radical scavenging activity
Type: functional

Row | SMILES | Activity
1 | O=C(O)C[C@@H]1C(=O)O[C@H]2[C@@H]3OC(=O)c4cc(O)c(O)c(O)c4-c4c(cc(O)c(O)c4O)C(=O)OC[C@H]2O[C@@H](OC(=O)c2cc(O)c(O)c(O)c2)[C@@H]3OC(=O)c2cc(O)c(O)c3c2[C@H]1[C@@](O)(C(=O)O)O3 | Active
2 | O=C(O)C[C@@H]1C(=O)O[C@H]2[C@@H]3OC(=O)c4cc(O)c(O)c(O)c4-c4c(cc(O)c(O)c4O)C(=O)OC[C@H]2O[C@@H](OC(=O)c2cc(O)c(O)c(O)c2)[C@@H]3OC(=O)c2cc(O)c(O)c3c2[C@H]1[C@H](O)C(=O)O3 | Active
